Laboratory results from ChEMBL document CHEMBL4725427, “Synthesis and SAR Studies of 1H-Pyrrolo[2,3-b]pyridine-2-carboxamides as Phosphodiesterase 4B (PDE4B) Inhibitors” (ACS Med Chem Lett, 2020).

Assays:
[1] = molecular target: 3',5'-cyclic-AMP phosphodiesterase 4B (Homo sapiens, UniProt Q07343); assay: Inhibition of recombinant human C-terminal His-tagged N-terminal GST-tagged PDE4B2 expressed in baculovirus infected Sf9 cells by radioligand binding assay; format: cell-based
[2] = Effect on TNFalpha production in C57BL/6 mouse bone marrow derived Macrophage at 1 to 10 uM incubated for 30 mins by ELISA; conditions: 0.5 h
[3] = Protein binding in mouse plasma assessed as unbound fraction; format: ADME, cell-free
[4] = molecular target: Dual specificity calcium/calmodulin-dependent 3',5'-cyclic nucleotide phosphodiesterase 1C (Homo sapiens) (UniProt Q14123); assay: Inhibition of recombinant human N-terminal GST-tagged PDE1C expressed in baculovirus infected Sf9 cells at 10 uM by radioligand assay relative to control
Chain of Dual specificity calcium/calmodulin-dependent 3',5'-cyclic nucleotide phosphodiesterase 1C (Homo sapiens) (Q14123 whole entry, the tested form may be a part): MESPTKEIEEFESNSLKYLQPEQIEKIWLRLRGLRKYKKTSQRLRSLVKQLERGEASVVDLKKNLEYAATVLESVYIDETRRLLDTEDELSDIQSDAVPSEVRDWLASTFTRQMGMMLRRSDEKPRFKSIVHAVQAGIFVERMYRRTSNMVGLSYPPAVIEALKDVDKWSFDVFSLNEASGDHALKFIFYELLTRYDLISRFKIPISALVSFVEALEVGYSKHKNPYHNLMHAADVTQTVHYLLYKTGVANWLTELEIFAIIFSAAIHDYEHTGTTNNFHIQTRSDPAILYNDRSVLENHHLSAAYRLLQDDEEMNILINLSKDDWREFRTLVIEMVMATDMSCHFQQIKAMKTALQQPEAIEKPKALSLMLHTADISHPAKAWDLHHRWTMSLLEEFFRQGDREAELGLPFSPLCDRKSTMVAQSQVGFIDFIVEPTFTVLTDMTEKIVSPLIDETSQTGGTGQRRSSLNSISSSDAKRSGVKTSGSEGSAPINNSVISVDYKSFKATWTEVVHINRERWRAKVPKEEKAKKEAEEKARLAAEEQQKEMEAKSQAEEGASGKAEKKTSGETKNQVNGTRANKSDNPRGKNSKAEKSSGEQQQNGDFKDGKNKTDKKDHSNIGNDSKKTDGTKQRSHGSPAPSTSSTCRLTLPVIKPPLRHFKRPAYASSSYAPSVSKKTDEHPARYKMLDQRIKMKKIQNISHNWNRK

[5] = molecular target: cGMP-dependent 3',5'-cyclic phosphodiesterase (Homo sapiens) (UniProt O00408); assay: Inhibition of recombinant human N-terminal FLAG-tagged PDE2A1 (2 to 941 residues) expressed in baculovirus infected Sf9 cells at 10 uM by radioligand assay relative to control
[6] = molecular target: 3',5'-cyclic-AMP phosphodiesterase 4C (Homo sapiens) (UniProt Q08493); assay: Inhibition of recombinant human N-terminal GST-tagged PDE4C1 expressed in baculovirus infected Sf9 cells at 10 uM by radioligand assay relative to control
Chain of 3',5'-cyclic-AMP phosphodiesterase 4C (Homo sapiens) (Q08493 whole entry): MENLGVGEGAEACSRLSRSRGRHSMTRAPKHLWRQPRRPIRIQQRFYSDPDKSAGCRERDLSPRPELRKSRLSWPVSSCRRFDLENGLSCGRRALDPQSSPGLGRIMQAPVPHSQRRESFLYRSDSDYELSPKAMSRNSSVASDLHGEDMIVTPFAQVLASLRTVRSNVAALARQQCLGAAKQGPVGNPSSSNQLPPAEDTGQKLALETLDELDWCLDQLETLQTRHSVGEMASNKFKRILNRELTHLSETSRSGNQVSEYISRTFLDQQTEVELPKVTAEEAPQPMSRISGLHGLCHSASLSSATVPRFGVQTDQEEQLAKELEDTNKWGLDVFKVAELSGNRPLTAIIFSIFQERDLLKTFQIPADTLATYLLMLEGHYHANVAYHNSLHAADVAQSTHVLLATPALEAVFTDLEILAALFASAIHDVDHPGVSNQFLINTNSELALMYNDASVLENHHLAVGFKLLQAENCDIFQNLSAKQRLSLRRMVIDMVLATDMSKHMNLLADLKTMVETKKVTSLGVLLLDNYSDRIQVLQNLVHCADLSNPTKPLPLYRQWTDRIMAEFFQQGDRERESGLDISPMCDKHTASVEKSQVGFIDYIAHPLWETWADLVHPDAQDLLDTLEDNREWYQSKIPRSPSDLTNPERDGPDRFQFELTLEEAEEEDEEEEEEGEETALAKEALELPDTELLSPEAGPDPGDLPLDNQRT

[7] = molecular target: 3',5'-cyclic-AMP phosphodiesterase 4D (Homo sapiens) (UniProt Q08499); assay: Inhibition of recombinant human N-terminal GST-tagged PDE4D3 expressed in baculovirus infected Sf9 cells at 10 uM by radioligand assay relative to control
[8] = molecular target: High affinity 3',5'-cyclic-AMP phosphodiesterase 7A (Homo sapiens) (UniProt Q13946); assay: Inhibition of recombinant human N-terminal GST-tagged PDE7A1 (122 to end residues) expressed in baculovirus infected Sf9 cells at 10 uM by radioligand assay relative to control
Chain of High affinity 3',5'-cyclic-AMP phosphodiesterase 7A (Homo sapiens) (Q13946 whole entry): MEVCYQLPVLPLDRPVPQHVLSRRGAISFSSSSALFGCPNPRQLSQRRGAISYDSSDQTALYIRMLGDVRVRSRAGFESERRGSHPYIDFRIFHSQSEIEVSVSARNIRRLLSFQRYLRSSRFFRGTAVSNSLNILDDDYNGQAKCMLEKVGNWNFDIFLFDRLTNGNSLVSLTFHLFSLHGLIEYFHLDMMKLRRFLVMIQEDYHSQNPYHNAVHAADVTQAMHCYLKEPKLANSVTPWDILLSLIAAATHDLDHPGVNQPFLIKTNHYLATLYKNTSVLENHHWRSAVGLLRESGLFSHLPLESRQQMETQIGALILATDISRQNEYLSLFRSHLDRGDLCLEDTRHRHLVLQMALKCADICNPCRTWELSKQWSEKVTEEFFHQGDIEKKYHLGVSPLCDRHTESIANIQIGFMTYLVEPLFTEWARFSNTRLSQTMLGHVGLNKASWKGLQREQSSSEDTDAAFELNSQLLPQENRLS

[9] = molecular target: 3',5'-cyclic-AMP phosphodiesterase 7B (Homo sapiens) (UniProt Q9NP56); assay: Inhibition of recombinant human N-terminal GST-tagged C-terminal His-tagged PDE7B (109 to end residues) expressed in baculovirus infected Sf9 cells at 10 uM by radioligand assay relative to control
Chain of 3',5'-cyclic-AMP phosphodiesterase 7B (Homo sapiens) (Q9NP56 whole entry, the tested form may be a part): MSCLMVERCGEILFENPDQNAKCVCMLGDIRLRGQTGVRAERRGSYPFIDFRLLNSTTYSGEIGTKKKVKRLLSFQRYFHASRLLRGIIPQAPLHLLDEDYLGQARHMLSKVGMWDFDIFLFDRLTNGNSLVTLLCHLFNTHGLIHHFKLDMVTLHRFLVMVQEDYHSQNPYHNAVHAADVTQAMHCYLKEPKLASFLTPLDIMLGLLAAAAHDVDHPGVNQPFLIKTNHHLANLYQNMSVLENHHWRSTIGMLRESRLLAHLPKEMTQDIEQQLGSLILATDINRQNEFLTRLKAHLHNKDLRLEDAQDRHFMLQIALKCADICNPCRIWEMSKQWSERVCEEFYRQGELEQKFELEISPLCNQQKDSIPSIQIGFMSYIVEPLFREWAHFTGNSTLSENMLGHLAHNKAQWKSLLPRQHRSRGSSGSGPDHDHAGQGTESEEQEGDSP

[10] = molecular target: cAMP and cAMP-inhibited cGMP 3',5'-cyclic phosphodiesterase 10A (Homo sapiens) (UniProt Q9Y233); assay: Inhibition of recombinant human N-terminal GST-tagged PDE10A1 (2 to 789 residues) expressed in baculovirus infected Sf9 cells at 10 uM by radioligand assay relative to control
[11] = molecular target: 5-hydroxytryptamine receptor 1B (Homo sapiens) (UniProt P28222); assay: Inhibition of 5HT1B (unknown origin) relative to control; conditions: concentration not given here
Chain of 5-hydroxytryptamine receptor 1B (Homo sapiens) (P28222 whole entry): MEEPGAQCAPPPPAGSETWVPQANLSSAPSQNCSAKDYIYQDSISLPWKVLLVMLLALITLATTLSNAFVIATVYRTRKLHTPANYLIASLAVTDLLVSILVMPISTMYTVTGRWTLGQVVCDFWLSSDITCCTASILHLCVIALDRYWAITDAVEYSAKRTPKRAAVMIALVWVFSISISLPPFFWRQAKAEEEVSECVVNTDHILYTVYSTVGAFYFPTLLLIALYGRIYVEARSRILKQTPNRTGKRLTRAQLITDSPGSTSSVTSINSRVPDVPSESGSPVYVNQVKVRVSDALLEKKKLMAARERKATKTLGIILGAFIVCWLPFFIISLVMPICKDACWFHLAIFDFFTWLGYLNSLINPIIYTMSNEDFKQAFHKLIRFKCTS

[12] = molecular target: 5-hydroxytryptamine receptor 1E (Homo sapiens) (UniProt P28566); assay: Inhibition of 5HT1E (unknown origin) relative to control; conditions: concentration not given here
Chain of 5-hydroxytryptamine receptor 1E (Homo sapiens) (P28566 whole entry): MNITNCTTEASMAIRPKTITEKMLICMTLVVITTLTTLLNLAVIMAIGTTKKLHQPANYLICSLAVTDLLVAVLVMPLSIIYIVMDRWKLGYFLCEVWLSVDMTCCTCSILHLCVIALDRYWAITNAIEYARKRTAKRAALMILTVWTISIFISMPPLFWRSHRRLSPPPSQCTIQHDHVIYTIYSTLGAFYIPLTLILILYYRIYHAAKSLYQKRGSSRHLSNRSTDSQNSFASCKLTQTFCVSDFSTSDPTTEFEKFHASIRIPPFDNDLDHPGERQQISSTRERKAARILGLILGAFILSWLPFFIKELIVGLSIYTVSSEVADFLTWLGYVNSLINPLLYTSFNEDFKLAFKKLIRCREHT

[13] = molecular target: 5-hydroxytryptamine receptor 2A (Homo sapiens) (UniProt P28223); assay: Inhibition of 5HT2A (unknown origin) relative to control; conditions: concentration not given here
[14] = molecular target: 5-hydroxytryptamine receptor 6 (Homo sapiens) (UniProt P50406); assay: Inhibition of 5HT6 (unknown origin) relative to control; conditions: concentration not given here
[15] = molecular target: Alpha-1A adrenergic receptor (Homo sapiens) (UniProt P35348); assay: Inhibition of adrenoceptor alpha 1A (unknown origin) relative to control; conditions: concentration not given here
[16] = molecular target: Alpha-1D adrenergic receptor (Homo sapiens) (UniProt P25100); assay: Inhibition of adrenoceptor alpha 1D (unknown origin) relative to control; conditions: concentration not given here
[17] = molecular target: Alpha-2C adrenergic receptor (Homo sapiens) (UniProt P18825); assay: Inhibition of adrenoceptor alpha 2C (unknown origin) relative to control; conditions: concentration not given here
[18] = molecular target: Beta-2 adrenergic receptor (Homo sapiens) (UniProt P07550); assay: Inhibition of adrenoceptor beta2 (unknown origin) relative to control; conditions: concentration not given here
Chain of Beta-2 adrenergic receptor (Homo sapiens) (P07550 whole entry, looked up): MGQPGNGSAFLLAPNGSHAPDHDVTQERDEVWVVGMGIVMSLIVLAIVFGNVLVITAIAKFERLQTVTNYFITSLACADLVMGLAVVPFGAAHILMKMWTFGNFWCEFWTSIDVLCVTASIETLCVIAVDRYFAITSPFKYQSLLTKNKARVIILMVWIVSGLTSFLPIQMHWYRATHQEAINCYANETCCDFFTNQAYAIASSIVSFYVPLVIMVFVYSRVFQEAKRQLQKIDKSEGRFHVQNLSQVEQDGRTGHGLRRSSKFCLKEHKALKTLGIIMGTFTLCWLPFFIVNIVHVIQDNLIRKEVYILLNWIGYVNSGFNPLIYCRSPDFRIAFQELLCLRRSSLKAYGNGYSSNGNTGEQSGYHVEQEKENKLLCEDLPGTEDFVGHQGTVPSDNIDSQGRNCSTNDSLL

[19] = molecular target: D(1A) dopamine receptor (Homo sapiens) (UniProt P21728); assay: Inhibition of D1 (unknown origin) relative to control; conditions: concentration not given here
Chain of D(1A) dopamine receptor (Homo sapiens) (P21728 whole entry): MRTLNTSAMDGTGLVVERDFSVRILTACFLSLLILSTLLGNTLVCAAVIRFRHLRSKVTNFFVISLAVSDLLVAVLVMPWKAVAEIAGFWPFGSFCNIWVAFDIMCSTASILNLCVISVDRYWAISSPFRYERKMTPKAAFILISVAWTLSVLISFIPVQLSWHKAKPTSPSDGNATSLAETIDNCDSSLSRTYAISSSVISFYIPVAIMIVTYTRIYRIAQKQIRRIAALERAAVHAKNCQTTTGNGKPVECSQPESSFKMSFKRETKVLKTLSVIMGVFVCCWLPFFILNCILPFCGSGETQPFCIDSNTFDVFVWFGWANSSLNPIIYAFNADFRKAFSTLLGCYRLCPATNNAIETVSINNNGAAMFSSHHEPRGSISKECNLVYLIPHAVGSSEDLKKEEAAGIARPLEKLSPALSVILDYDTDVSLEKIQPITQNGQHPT

[20] = molecular target: D(3) dopamine receptor (Homo sapiens) (UniProt P35462); assay: Inhibition of D3 (unknown origin) relative to control; conditions: concentration not given here
[21] = molecular target: Histamine H1 receptor (Homo sapiens) (UniProt P35367); assay: Inhibition of histamine H1 receptor (unknown origin) relative to control; conditions: concentration not given here
Chain of Histamine H1 receptor (Homo sapiens) (P35367 whole entry): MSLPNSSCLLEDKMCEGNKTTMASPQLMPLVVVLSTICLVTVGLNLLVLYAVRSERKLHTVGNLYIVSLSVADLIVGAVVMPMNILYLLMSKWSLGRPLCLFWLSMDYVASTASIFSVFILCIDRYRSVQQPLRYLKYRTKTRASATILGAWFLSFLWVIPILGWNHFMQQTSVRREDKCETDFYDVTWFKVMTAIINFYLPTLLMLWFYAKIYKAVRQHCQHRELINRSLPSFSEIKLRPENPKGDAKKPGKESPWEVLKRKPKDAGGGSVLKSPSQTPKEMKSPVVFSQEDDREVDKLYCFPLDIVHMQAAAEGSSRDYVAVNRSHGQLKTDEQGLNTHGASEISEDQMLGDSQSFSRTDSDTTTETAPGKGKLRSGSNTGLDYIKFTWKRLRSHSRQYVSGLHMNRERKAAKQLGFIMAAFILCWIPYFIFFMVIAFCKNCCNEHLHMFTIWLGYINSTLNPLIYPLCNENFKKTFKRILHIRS

[22] = molecular target: Muscarinic acetylcholine receptor M1 (Homo sapiens) (UniProt P11229); assay: Inhibition of muscarinic M1 receptor (unknown origin) relative to control; conditions: concentration not given here
[23] = molecular target: Muscarinic acetylcholine receptor M3 (Homo sapiens) (UniProt P20309); assay: Inhibition of muscarinic M3 receptor (unknown origin) relative to control; conditions: concentration not given here
[24] = molecular target: Muscarinic acetylcholine receptor M4 (Homo sapiens) (UniProt P08173); assay: Inhibition of muscarinic M4 receptor (unknown origin) relative to control; conditions: concentration not given here
Chain of Muscarinic acetylcholine receptor M4 (Homo sapiens) (P08173 whole entry): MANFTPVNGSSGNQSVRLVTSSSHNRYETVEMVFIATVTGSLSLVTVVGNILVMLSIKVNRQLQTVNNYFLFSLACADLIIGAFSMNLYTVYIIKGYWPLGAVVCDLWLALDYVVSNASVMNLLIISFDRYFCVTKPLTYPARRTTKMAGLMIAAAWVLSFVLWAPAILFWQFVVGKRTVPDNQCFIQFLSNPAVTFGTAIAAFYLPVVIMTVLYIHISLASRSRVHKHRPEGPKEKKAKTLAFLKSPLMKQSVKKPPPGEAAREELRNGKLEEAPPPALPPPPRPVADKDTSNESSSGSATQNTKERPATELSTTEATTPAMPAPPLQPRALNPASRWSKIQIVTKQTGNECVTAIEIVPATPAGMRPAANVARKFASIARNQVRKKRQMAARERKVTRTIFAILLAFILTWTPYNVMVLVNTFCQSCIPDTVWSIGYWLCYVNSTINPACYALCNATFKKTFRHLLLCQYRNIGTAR

[25] = molecular target: 5-hydroxytryptamine receptor 2C (Homo sapiens, UniProt P28335); assay: Inhibition of 5HT2C (unknown origin)
[26] = molecular target: Sigma intracellular receptor 2 (Homo sapiens, UniProt Q5BJF2); assay: Inhibition of sigma2 receptor (unknown origin)

Structure (SMILES): O=C(c1nc2cccnc2n1-c1ccc(Cl)c(Cl)c1)N1CC(F)(F)C1
- IC50 [1]: 0.14 µM
- Activity [2]: Non-Toxic
- fraction unbound [3]: 0.027
- inhibition [4]: < 50%
- inhibition [5]: < 50%
- inhibition [6]: < 50%
- inhibition [7]: < 50%
- inhibition [8]: < 50%
- inhibition [9]: < 50%
- inhibition [10]: < 50%
- inhibition [11]: < 50%
- inhibition [12]: < 50%
- inhibition [13]: < 50%
- inhibition [14]: < 50%
- inhibition [15]: < 50%
- inhibition [16]: < 50%
- inhibition [17]: < 50%
- inhibition [18]: < 50%
- inhibition [19]: < 50%
- inhibition [20]: < 50%
- inhibition [21]: < 50%
- inhibition [22]: < 50%
- inhibition [23]: < 50%
- inhibition [24]: < 50%
- IC50 [25]: > 10 µM
- IC50 [26]: 7.8 µM
